Experimental data published in the NIST ThermoML archive (doi:10.1021/je025538u).

Legend:
[1] = 101.33 kPa, Liquid
[2] = cn = amount concentration of the nth substance listed, in mol/dm3; details: 101.3 kPa, Liquid

CCC(C)O (stereo not drawn) [butan-2-ol]
[1]
Details	mass density [kg/m3]	viscosity [mPa·s]
293.15 K	806.6	3.663
303.15 K	799.3	2.527
313.15 K	792.2	1.801
333.15 K	778	1.025

CCCCCCCCCCCC(=O)O [dodecanoic acid] + CCC(C)O
[2]
Details	mass density, 293.15 K [kg/m3]	mass density, 303.15 K [kg/m3]	mass density, 313.15 K [kg/m3]	mass density, 333.15 K [kg/m3]	viscosity, 293.15 K [mPa·s]	viscosity, 303.15 K [mPa·s]	viscosity, 313.15 K [mPa·s]	viscosity, 333.15 K [mPa·s]
c1 = 0.0103	806.38	798.71	791.02	778.39	3.58	2.547	1.81	1.05
c1 = 0.05	807.27	800.23	793.39	779.62	3.665	2.548	1.818	1.04
c1 = 0.1003	807.29	800.56	794.11	780.76	3.7	2.573	1.851	1.07
c1 = 0.15	808.85	801.14	794.51	782	3.688	2.585	1.865	1.08
c1 = 0.2001	808.76	801.85	794.64	782.9	3.744	2.624	1.877	1.1
c1 = 0.35	812.86	805.19	797.47	785.3	3.841	2.704	1.951	1.15

CCCCCCCCCCCCCCCC(=O)O [hexadecanoic acid] + CCC(C)O
[2]
Details	mass density, 293.15 K [kg/m3]	mass density, 303.15 K [kg/m3]	mass density, 313.15 K [kg/m3]	mass density, 333.15 K [kg/m3]	viscosity, 293.15 K [mPa·s]	viscosity, 303.15 K [mPa·s]	viscosity, 313.15 K [mPa·s]	viscosity, 333.15 K [mPa·s]
c1 = 0.01	807.66	799.68	792.63	–	3.53	2.464	1.751	–
c1 = 0.05	807.67	800.09	792.74	782.3	3.616	2.499	1.789	1.09
c1 = 0.1	809.21	801.34	794.66	782.9	3.613	2.512	1.808	1.08
c1 = 0.1501	810.16	802.89	795.01	783.19	3.7	2.585	1.85	1.13
c1 = 0.2001	810.6	802.96	795.11	783.51	3.828	2.665	1.921	1.14
c1 = 0.3501	813.04	806.24	799.34	787.5	4.056	2.834	2.045	1.27

CCCCCCCCCCCCCCCCCC(=O)O [octadecanoic acid] + CCC(C)O
[2]
Details	mass density, 293.15 K [kg/m3]	mass density, 303.15 K [kg/m3]	mass density, 313.15 K [kg/m3]	mass density, 333.15 K [kg/m3]	viscosity, 293.15 K [mPa·s]	viscosity, 303.15 K [mPa·s]	viscosity, 313.15 K [mPa·s]	viscosity, 333.15 K [mPa·s]
c1 = 0.01	806.45	798.83	792.46	–	3.611	2.499	1.766	–
c1 = 0.05	806.9	799.7	792.65	782.79	3.679	2.531	1.808	1.09
c1 = 0.1	813.95	806.09	796.45	783.92	3.795	2.466	1.79	1.1
c1 = 0.15	810.78	803.5	796.91	784.23	3.785	2.627	1.886	1.16
c1 = 0.2	811.62	804.54	797.76	785.41	3.799	2.584	1.881	1.16
c1 = 0.3501	814.68	806.92	800.5	788.89	4.177	2.919	2.017	1.36
